The target of the first assay is recombinant human nicotinic acid receptor (NAR) (Homo sapiens, UniProt Q8TDS4). Briefly: Nicotinic Acid Receptor Assay: inhibition of forskolin-stimulated cAMP accumulation in CHO cells (MesoScale Discovery cAMP kit). The assay is classed as cell-based. The note with it: CHO cells expressing recombinant human NAR; forskolin-stimulated cAMP; read-out: NA EC50 camp. The procedure:
The nicotinic acid receptor agonist activity of the inventive compounds was determined by following the inhibition of forskolin-stimulated cAMP accumulation in cells using the MesoScale Discovery cAMP detection kit following the manufacture's protocol. Briefly, Chinese Hamster Ovary (CHO) cells expressing recombinant human nicotinic acid receptor (NAR) were harvested enzymatically, washed 1× in phosphate buffered saline (PBS) and resuspended in PBS containing 0.5 mM IBMX at 3×10^6 cells/mL. Ten μL of cell suspension was added to each well of a 384-well plate which contained 10 μL of test compounds. Test compounds were diluted with PBS containing 6 μM of forskolin. Plates were incubated for 30 minutes at room temperature after the addition of cells. Lysis buffer containing cAMP-Tag was added to each well (10 μL/well) as per the manufacturer's protocol. Plates were then incubated from 45 minutes to overnight. Prior to reading, 10 μL of read buffer was added to each well, and the plate was read in a Sector 6000 plate imager. The signal was converted to cAMP concentration using a standard curve run on each plate.
In general terms: Changes in cAMP serve as a functional read-out for many G protein-coupled receptors.
recombinant human nicotinic acid receptor (NAR), sequence (Q8TDS4 whole entry): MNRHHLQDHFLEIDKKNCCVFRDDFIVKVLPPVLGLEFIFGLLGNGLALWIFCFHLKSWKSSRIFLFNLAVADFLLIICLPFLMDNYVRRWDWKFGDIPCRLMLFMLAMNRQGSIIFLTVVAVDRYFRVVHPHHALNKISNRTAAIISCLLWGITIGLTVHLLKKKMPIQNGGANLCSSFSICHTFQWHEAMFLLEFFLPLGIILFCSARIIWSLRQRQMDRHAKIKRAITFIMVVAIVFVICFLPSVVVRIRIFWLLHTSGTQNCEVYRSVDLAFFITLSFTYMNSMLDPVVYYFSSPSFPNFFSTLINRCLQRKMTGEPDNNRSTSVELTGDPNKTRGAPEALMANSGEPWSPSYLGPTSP
One may read the EC50 as the concentration that produces a half-maximal response. For the compound `CCc1cc(=O)oc2nc(OCc3ccc(-c4ccccc4)cc3F)[nH]c(=O)c12` [Compound 518], the EC50 is 100 to 1000 nM.
On the same count and under the same terms, under `O=c1[nH]c(=O)c2c(C3CCCC3)cc(=O)oc2[nH]1` [Compound 227] stands above 1000 nM; under `CCc1cc(=O)oc2nc(OCc3csc(-c4cccs4)n3)[nH]c(=O)c12` [Compound 541], 100 to 1000 nM.
For `CCCCc1cc(=O)oc2[nH]c(=O)n(CC3CC3)c(=O)c12` [Compound 258], the EC50 lay within 100 to 1000 nM.
For `CCc1cc(=O)oc2nc(OCc3cccc(OC)n3)[nH]c(=O)c12` [Compound 544], the EC50 fell in the range of 100 to 1000 nM.
In the case of `O=c1[nH]c(=O)c2c(C3CC3)cc(=O)oc2[nH]1` [Compound 283], the EC50 lay in the range of 100 to 1000 nM.
In the case of `N#Cc1cccc(Cc2cc(=O)oc3[nH]c(=O)[nH]c(=O)c23)c1` [Compound 231], the EC50 was above 1000 nM.
Turning to `CC1(CCCc2cc(=O)oc3[nH]c(=O)n(C4CCC4)c(=O)c23)CC1` [Compound 285], the EC50 lay in the range of 100 to 1000 nM.
On to `N#Cc1ccc(-c2c(CCC3CCC3)c3c(=O)[nH]c(=O)[nH]c3oc2=O)cc1` [Compound 702], for which the EC50 was above 1000 nM.
The same measure, in the same setting: under `O=c1[nH]c(=O)c2c(CCC3CCC3)c(-c3ccccc3)c(=O)oc2[nH]1` [Compound 699] stands above 1000 nM; under `CCc1cc(=O)oc2nc(OCc3cnc(Br)s3)[nH]c(=O)c12` [Compound 608], 100 to 1000 nM; under `CCCCc1c(-c2ccccc2)c(=O)oc2[nH]c(=O)[nH]c(=O)c12` [Compound 292], 100 to 1000 nM.
As to `CCc1cc(=O)oc2nc(OCc3ccc(C#N)cc3)[nH]c(=O)c12` [Compound 630], the EC50 was above 1000 nM.
Regarding `CCc1cc(=O)oc2nc(OCc3cccc(N(C)C)c3)[nH]c(=O)c12` [Compound 619], the EC50 lay within 100 to 1000 nM.
On to `CCc1cc(=O)oc2nc(OCc3cc4ccccc4s3)[nH]c(=O)c12` [Compound 538], for which the EC50 was in the range of 100 to 1000 nM.
The same measure, in the same setting: under `CCc1cc(=O)oc2nc(OCc3ccc(-n4cncn4)cc3)[nH]c(=O)c12` [Compound 628] stands above 1000 nM; under `CC1CC(c2cc(=O)oc3[nH]c(=O)[nH]c(=O)c23)C1` (centres unmarked) [Compound 296], 100 to 1000 nM; under `CCc1cc(=O)oc2nc(OCC#CCCOC)[nH]c(=O)c12` [Compound 664], 100 to 1000 nM.
As for `CCc1cc(=O)oc2nc(OCC#CCN(C)C)[nH]c(=O)c12` [Compound 641], the EC50 was in the range of 0.001 to 100 nM.
Same read-out and setting: in the case of `CCc1cc(=O)oc2nc(OCc3cc(Br)cs3)[nH]c(=O)c12` [Compound 534] it was 100 to 1000 nM.
For `CCc1cc(=O)oc2nc(OCc3ccc(-c4cccc(C(F)(F)F)c4)cc3F)[nH]c(=O)c12` [Compound 573], the EC50 lay in the range of 100 to 1000 nM.
In the case of `CCOC(=O)Cn1cc(CCCc2cc(=O)oc3[nH]c(=O)[nH]c(=O)c23)nn1` [Compound 250], the EC50 was above 1000 nM.
Same read-out and setting: under `CCc1cc(=O)oc2nc(OCc3ccccc3-c3cccc(C(=O)NC4CC4)c3)[nH]c(=O)c12` [Compound 553] stands above 1000 nM.
As for `CSCCCc1cc(=O)oc2[nH]c(=O)[nH]c(=O)c12` [Compound 225], the EC50 fell in the range of 0.001 to 100 nM.
The same measure, in the same setting: under `CCc1cc(=O)oc2nc(OCc3ccccc3-n3ccnc3C)[nH]c(=O)c12` [Compound 583] stands 100 to 1000 nM; under `CC/C=C\CCc1cc(=O)oc2[nH]c(=O)n(CC3CC3)c(=O)c12` [Compound 254], above 1000 nM; under `CCc1cc(=O)oc2nc(OC(C)COC)[nH]c(=O)c12` (centres unmarked) [Compound 607], 100 to 1000 nM.
With `Cc1cc(=O)oc2[nH]c(=O)n(C3CCC3)c(=O)c12` [Compound 252], the EC50 is 0.001 to 100 nM.
On the same count and under the same terms, under `CCc1cc(=O)oc2nc(O[C@@H](C)c3ccc4ccccc4c3)[nH]c(=O)c12` [Compound 501] stands 0.001 to 100 nM; under `CCc1cc(=O)oc2nc(OCc3ccc(Br)cn3)[nH]c(=O)c12` [Compound 536], 100 to 1000 nM.
Consider `O=c1cc(Cc2ccccc2)c2c(=O)[nH]c(OCc3ccccc3F)nc2o1` [Compound 616], for which the EC50 lay within 100 to 1000 nM.
Consider `CCc1cc(=O)oc2nc(OCC(C)(C)S(=O)(=O)c3ccc(Cl)cc3)[nH]c(=O)c12` [Compound 663], for which the EC50 was above 1000 nM.
For the compound `O=c1[nH]c(=O)c2c(CCCOc3ccccc3)cc(=O)oc2[nH]1` [Compound 208], the EC50 was above 1000 nM.
Consider `CCc1cc(=O)oc2nc(OCc3cccc(-c4ccc(F)cc4)c3)[nH]c(=O)c12` [Compound 566], for which the EC50 is above 1000 nM.
Take `O=c1[nH]c(=O)c2c(CCCOCC3CC3)cc(=O)oc2[nH]1` [Compound 273]: the EC50 fell in the range of 100 to 1000 nM.
Turning to `CCc1cc(=O)oc2nc(OCc3c(C)noc3-c3ccccc3)[nH]c(=O)c12` [Compound 531], the EC50 is 100 to 1000 nM.
On to `O=c1cc(Cc2ccccc2)c2c(=O)[nH]c(OCc3ccccc3)nc2o1` [Compound 627], for which the EC50 is above 1000 nM.
On the same count and under the same terms, under `O=c1[nH]c(=O)c2c3c(c(=O)oc2[nH]1)CCCCCC3` [Compound 211] stands above 1000 nM.

Still in this assay, the particulars now being: NA EC50 camp (nM), CHO cells expressing recombinant human NAR; forskolin-stimulated cAMP.
As to `CCc1cc(=O)oc2nc(OCc3ccccc3-c3cccc(C#N)c3)[nH]c(=O)c12` [Compound 509], the EC50 was 100 to 1000 nM.
As for `C#CCOc1nc2oc(=O)cc(CC)c2c(=O)[nH]1` [Compound 555], the EC50 was 100 to 1000 nM.
The same measure, in the same setting: in the case of `CCOCCOc1nc2oc(=O)cc(CC)c2c(=O)[nH]1` [Compound 580] it was above 1000 nM; in that of `CCC#CCOc1nc2oc(=O)cc(Cc3ccccc3)c2c(=O)[nH]1` [Compound 615], 100 to 1000 nM.

Still in this assay, the particulars now being: NA EC50 camp, inhibition of forskolin-stimulated cAMP accumulation, CHO cells expressing recombinant human NAR.
Take `CCCCc1cc(=O)oc2nc(OCC#CC3CC3)[nH]c(=O)c12` [Compound 735]: the EC50 stood at 94 nM.
Same read-out and setting: in the case of `CCc1cc(=O)oc2nc[nH]c(=O)c12` [Compound 807] it was above 10000 nM.

Staying with this assay, now noted: inhibition of forskolin-stimulated cAMP accumulation, CHO cells expressing recombinant human NAR; read-out: NA EC50 camp.
Turning to `O=c1nc(OCC(F)F)c2c(CCCC3CC3)cc(=O)oc2[nH]1` [Compound 831], the EC50 is 531 nM.
Consider `CCCCc1cc(=O)oc2c1c(=O)[nH]c(=O)n2OCC` [Compound 778], for which the EC50 worked out at 9150 nM.
Regarding `COCCn1c(=O)[nH]c(=O)c2c(CCC3CC3)cc(=O)oc21` [Compound 801], the EC50 was above 10000 nM.
For `O=c1nc(OCF)c2c(CCCC3CC3)cc(=O)oc2[nH]1` [Compound 789], the EC50 stood at 88 nM.
The same measure, in the same setting: in the case of `CCCCc1c(-c2ccccc2)c(=O)oc2[nH]c(=O)[nH]c(=O)c12` [Compound 292] it was 300 nM; in that of `CCCCc1cc(=O)oc2[nH]c(=O)n(CF)c(=O)c12` [Compound 803], 3450 nM.
For `CCCCc1cc(=O)oc2[nH]c(=O)n(CCF)c(=O)c12` [Compound 818], the EC50 was determined as 308 nM.
With `CCCCc1cc(=O)oc2[nH]c(=O)n(OCc3ccccc3)c(=O)c12` [Compound 799], the EC50 is above 10000 nM.
Regarding `CCc1cc(=O)oc2nc(OC(C)c3ccccc3F)[nH]c(=O)c12` (centres unmarked) [Compound 90], the EC50 turned out to be 475 nM.
Regarding `CCC#CCOc1nc2oc(=O)cc(CCCC)c2c(=O)[nH]1` [Compound 734], the EC50 is 71.8 nM.
Consider `CCc1cc(=O)oc2[nH]c(=O)n(OC)c(=O)c12` [Compound 768], for which the EC50 is 384 nM.
As to `O=c1cc(CCCC2CC2)c2c(=O)n(CCF)c(=O)[nH]c2o1` [Compound 804], the EC50 stood at 178 nM.
For `O=c1[nH]c(=O)c2c(CC3CCCCC3)cc(=O)oc2[nH]1` [Compound 103], the EC50 amounted to 74.3 nM.
The same measure, in the same setting: in the case of `CCC(C)CCc1cc(=O)oc2nc(C(F)F)[nH]c(=O)c12` (centres unmarked) [Compound 812] it was 40 nM; in that of `CCCCc1cc(=O)oc2nc(CF)[nH]c(=O)c12` [Compound 809], 187 nM.
